What all share (assay type): biochemical
Assay [1] deals with T1, EGFR (Homo sapiens, UniProt P00533).
T1 construct: Kinases are expressed as either kinase domains or full length constructs; made in house
Put plainly: Kinase inhibition assay (33P transfer), EGFR. As to conditions: Table 2, kinase inhibition class; read-out: EGFR-1. An outline of the steps: (§1)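 Recombinant kinase domains or full-length GST- or His-tagged constructs, from E. coli or baculovirus/High Five cells, sometimes with regulatory polypeptides. Transfer of 33P from ATP to plate-bound poly(Glu,Tyr) 4:1 or poly(Arg,Ser) 3:1 counted by liquid scintillation after phosphoric acid wash; IC50 is the concentration halving incorporation.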

Assay [2] deals with T2, Lyn (Homo sapiens, UniProt P07948).
T2 construct: Kinases are expressed as either kinase domains or full length constructs; made in house
Briefly: Kinase inhibition assay (33P transfer), Lyn. As to conditions: Table 6, Lyn-1 kinase inhibition class. The text has this: (§2) The inhibitor compounds described herein are screened in the following manner. Kinases suitable for use in the following protocol to determine kinase activity of the compounds described herein include, -but are not limited to: Lck, Lyn, Src, Fyn, Syk, Zap-70, Itk, Tec, Btk, EGFR, ErbB2, Kdr, Flt-1, Flt-3, Tek, c-Met, InsR, and AKT.
(§3) Kinases are expressed as either kinase domains or full length constructs fused to glutathione S-transferase (GST) or polyHistidine tagged fusion proteins in either E. colior Baculovirus-High Five expression systems. They are purified to near homogeneity by affinity chromatography essentially as previously described (Lehr et al., 1996; Gish et al., 1995). In some instances, kinases are co-expressed or mixed with purified or partially purified regulatory polypeptides prior to measurement of activity.
(§4) Kinase activity and inhibition are measured essentially by established protocols (Braunwalder et al., 1996). Briefly, The transfer of ^33PO4 from ATP to the synthetic substrates poly(Glu, Tyr) 4:1 or poly(Arg, Ser) 3:1 attached to the bioactive surface of microtiter plates serves as the basis to evaluate enzyme activity. After an incubation period, the amount of phosphate transferred is measured by first washing the plate with 0.5% phosphoric acid, adding liquid scintillant, and then counting in a liquid scintillation detector. The IC50 is determined by the concentration of compound that causes a 50% reduction in the amount of […] incorporated onto the substrate bound to the plate.

Assay [3] deals with T3, FGFR1 (Homo sapiens, UniProt P11362).
T3 construct: Kinases are expressed as either kinase domains or full length constructs; made in house
Put plainly: Kinase inhibition assay (33P transfer), FGFR1. As to conditions: read-out: FGFR1-1.

Assay [4] concerns the target T4, c-Met (Homo sapiens, UniProt P08581).
T4 construct: Kinases are expressed as either kinase domains or full length constructs; made in house
Put plainly: Kinase inhibition assay (33P transfer), c-Met. As to conditions: Table 2, kinase inhibition class; read-out: Met-1. An outline of the steps:
as §1

Assay [5] addresses T5, Fyn (Homo sapiens, UniProt P06241).
T5 construct: Kinases are expressed as either kinase domains or full length constructs; made in house
Briefly: Kinase inhibition assay (33P transfer), Fyn. As to conditions: read-out: Fyn-1.
Source text: as §2, §3, §4

Assay [6] deals with T6, AKT (Homo sapiens, UniProt Q9Y243).
T6 construct: Kinases are expressed as either kinase domains or full length constructs; made in house
Put plainly: Kinase inhibition assay (33P transfer), AKT. As to conditions: Table 2, kinase inhibition class; read-out: AKT3-1. An outline of the steps: (§5)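 GST/His-tagged kinase (domain or full length; E. coli or baculovirus) + [33P]ATP on plates coated with poly(Glu,Tyr) 4:1 or poly(Arg,Ser) 3:1; incubate, wash 0.5% H3PO4, add scintillant, count.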

Assay [7] concerns the target T7, PDGFRB (Homo sapiens, UniProt P09619).
T7 construct: Kinases are expressed as either kinase domains or full length constructs; made in house
Put plainly: Kinase inhibition assay (33P transfer), PDGFRB. As to conditions: read-out: PDGFRB-1.

Assay [8] concerns the target T8, Kdr (Homo sapiens, UniProt P35968).
T8 construct: Kinases are expressed as either kinase domains or full length constructs; made in house
Briefly: Kinase inhibition assay (33P transfer), Kdr. As to conditions: Table 3; read-out: KDR-1. The essentials:
as §5

For assay [9], the target named is T9, Flt-1 (Homo sapiens, UniProt P17948).
T9 construct: Kinases are expressed as either kinase domains or full length constructs; made in house
Put plainly: Kinase inhibition assay (33P transfer), Flt-1.
Source text: as §2, §3, §4

For assay [10], the target named is T10, Hck-1 (Homo sapiens, UniProt P08631).
T10 construct: Kinases are expressed as either kinase domains or full length constructs; made in house
Briefly: Kinase inhibition assay (33P transfer), Hck. As to conditions: Table 6, Hck-1 kinase inhibition class.

Assay [11] deals with T11, Lck (Homo sapiens, UniProt P06239).
T11 construct: Kinases are expressed as either kinase domains or full length constructs; made in house
Briefly: Kinase inhibition assay (33P transfer), Lck. As to conditions: Table 3; read-out: Lck-1. An outline of the steps:
as §5

The target in assay [12] is T12, ErbB4 (Homo sapiens, UniProt Q15303).
T12 construct: Kinases are expressed as either kinase domains or full length constructs; made in house
Briefly: Kinase inhibition assay (33P transfer), ErbB4. As to conditions: read-out: ErbB4-1.

The target of assay [13] is T13, Itk (Homo sapiens, UniProt Q08881).
T13 construct: Kinases are expressed as either kinase domains or full length constructs; made in house
T13 sequence (Q08881 1-620): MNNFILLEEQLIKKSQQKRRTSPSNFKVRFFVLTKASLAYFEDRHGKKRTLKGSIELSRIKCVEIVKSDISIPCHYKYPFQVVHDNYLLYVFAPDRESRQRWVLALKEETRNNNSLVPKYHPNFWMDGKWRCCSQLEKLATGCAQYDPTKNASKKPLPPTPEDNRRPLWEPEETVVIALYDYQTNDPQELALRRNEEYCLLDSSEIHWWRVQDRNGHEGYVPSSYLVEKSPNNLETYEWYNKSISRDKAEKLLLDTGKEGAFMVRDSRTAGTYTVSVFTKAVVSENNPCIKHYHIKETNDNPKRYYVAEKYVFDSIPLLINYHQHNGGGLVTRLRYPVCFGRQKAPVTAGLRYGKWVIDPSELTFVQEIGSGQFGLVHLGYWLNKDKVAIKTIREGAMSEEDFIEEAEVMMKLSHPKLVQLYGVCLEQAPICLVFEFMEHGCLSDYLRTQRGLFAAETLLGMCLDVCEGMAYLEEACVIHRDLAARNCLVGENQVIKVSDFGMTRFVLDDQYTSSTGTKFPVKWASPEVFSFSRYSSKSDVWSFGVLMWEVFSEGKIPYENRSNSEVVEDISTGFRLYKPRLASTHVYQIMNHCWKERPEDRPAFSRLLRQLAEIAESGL
Briefly: Kinase inhibition assay (33P transfer), Itk. As to conditions: Table 3; read-out: Itk-1. The essentials:
as §1

In assay [14] the target is T14, Src (Homo sapiens, UniProt P12931).
T14 construct: Kinases are expressed as either kinase domains or full length constructs; made in house
Briefly: Kinase inhibition assay (33P transfer), Src. As to conditions: Table 6, Src-1 kinase inhibition class.
Source text: as §2, §3, §4

Assay [15] deals with T15, Zap-70 (Homo sapiens, UniProt P43403).
T15 construct: Kinases are expressed as either kinase domains or full length constructs; made in house
T15 sequence (P43403 1-619): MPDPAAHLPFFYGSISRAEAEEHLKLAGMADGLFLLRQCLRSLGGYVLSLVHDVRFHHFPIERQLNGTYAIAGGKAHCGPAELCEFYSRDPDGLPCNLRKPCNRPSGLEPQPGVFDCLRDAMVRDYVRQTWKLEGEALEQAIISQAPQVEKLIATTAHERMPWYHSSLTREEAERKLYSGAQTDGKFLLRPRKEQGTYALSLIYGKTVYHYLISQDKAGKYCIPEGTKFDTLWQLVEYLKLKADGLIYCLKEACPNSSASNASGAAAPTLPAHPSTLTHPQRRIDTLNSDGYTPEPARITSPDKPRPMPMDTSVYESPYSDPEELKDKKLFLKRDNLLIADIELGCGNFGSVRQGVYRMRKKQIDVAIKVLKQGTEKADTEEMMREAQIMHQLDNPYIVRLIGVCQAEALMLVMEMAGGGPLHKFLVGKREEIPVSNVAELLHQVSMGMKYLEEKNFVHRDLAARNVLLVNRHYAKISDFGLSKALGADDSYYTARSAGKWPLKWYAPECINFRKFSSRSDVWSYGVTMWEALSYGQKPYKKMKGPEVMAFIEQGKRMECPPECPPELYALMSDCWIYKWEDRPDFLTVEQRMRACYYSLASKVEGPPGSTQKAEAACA
Put plainly: Kinase inhibition assay (33P transfer), Zap-70. As to conditions: Table 3; read-out: Zap-1. The essentials:
as §5

The target in assay [16] is T16, Tek (Homo sapiens, UniProt Q02763).
T16 construct: Kinases are expressed as either kinase domains or full length constructs; made in house
Put plainly: Kinase inhibition assay (33P transfer), Tek. As to conditions: read-out: Tek-1. An outline of the steps:
as §1

T8 sequence (P35968 20-1356, species assumed): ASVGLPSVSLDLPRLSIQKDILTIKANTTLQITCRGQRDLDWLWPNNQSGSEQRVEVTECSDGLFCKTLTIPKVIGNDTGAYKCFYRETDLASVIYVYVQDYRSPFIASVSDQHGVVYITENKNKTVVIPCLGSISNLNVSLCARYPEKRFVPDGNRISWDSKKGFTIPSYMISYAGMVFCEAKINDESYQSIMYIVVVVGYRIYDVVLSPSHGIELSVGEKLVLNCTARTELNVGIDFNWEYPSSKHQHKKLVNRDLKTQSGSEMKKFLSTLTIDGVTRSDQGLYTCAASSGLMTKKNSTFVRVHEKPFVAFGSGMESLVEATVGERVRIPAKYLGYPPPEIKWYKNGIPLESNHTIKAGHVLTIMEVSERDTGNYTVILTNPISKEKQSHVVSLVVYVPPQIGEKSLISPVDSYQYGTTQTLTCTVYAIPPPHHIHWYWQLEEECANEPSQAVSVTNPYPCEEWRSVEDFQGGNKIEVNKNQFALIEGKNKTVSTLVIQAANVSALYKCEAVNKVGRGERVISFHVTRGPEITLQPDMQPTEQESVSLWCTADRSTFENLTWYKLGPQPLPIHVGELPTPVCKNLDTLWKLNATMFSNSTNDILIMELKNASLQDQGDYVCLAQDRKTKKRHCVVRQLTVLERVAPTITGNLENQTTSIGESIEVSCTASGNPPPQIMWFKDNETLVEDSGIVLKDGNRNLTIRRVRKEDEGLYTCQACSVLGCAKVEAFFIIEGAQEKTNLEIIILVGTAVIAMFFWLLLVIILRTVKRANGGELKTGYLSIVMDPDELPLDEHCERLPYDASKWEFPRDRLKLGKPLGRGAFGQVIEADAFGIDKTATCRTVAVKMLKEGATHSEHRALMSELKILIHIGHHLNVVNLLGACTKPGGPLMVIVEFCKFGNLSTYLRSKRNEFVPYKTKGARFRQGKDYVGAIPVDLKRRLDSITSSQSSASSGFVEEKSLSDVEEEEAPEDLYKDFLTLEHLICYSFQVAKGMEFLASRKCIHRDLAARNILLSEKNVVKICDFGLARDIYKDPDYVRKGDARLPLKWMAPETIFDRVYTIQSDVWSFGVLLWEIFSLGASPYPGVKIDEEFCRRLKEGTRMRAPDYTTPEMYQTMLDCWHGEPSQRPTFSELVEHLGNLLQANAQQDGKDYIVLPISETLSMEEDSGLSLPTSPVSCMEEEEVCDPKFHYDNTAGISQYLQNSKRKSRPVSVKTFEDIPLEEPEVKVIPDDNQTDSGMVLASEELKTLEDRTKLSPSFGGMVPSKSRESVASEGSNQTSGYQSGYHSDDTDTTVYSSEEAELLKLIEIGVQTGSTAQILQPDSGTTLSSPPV
T9 sequence (P17948 27-1338, species assumed): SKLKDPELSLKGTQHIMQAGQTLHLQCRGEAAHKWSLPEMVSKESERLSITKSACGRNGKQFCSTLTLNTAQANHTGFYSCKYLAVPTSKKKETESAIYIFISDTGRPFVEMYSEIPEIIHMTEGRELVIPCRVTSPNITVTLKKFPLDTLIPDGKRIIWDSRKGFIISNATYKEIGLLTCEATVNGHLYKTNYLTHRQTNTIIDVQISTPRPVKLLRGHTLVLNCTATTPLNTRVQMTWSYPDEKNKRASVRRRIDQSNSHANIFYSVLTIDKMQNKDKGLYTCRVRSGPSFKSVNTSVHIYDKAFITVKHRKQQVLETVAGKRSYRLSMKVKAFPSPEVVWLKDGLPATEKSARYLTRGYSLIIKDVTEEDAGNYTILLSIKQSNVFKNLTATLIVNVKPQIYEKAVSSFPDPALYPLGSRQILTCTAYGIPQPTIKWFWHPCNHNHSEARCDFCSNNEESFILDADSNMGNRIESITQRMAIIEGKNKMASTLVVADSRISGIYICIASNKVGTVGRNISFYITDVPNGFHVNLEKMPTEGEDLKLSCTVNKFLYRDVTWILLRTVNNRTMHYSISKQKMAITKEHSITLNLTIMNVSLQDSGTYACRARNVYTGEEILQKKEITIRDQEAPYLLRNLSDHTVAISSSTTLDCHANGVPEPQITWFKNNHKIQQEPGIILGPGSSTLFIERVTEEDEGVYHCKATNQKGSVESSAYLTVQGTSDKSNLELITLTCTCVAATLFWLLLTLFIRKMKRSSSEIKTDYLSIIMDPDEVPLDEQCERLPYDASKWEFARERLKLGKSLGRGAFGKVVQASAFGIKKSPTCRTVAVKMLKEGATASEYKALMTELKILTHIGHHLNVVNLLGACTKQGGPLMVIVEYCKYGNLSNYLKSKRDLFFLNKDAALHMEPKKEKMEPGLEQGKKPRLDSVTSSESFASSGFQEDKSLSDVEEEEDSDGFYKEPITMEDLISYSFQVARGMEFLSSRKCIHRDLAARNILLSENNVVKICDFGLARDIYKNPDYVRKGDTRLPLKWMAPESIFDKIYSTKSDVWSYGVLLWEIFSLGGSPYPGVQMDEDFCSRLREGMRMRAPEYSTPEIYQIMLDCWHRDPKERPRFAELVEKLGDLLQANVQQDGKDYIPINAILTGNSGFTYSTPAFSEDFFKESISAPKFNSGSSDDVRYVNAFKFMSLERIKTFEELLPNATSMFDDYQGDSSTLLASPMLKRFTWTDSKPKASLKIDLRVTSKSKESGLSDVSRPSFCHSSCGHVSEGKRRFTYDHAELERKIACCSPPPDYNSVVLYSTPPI
T12 sequence (Q15303 26-1308, species assumed): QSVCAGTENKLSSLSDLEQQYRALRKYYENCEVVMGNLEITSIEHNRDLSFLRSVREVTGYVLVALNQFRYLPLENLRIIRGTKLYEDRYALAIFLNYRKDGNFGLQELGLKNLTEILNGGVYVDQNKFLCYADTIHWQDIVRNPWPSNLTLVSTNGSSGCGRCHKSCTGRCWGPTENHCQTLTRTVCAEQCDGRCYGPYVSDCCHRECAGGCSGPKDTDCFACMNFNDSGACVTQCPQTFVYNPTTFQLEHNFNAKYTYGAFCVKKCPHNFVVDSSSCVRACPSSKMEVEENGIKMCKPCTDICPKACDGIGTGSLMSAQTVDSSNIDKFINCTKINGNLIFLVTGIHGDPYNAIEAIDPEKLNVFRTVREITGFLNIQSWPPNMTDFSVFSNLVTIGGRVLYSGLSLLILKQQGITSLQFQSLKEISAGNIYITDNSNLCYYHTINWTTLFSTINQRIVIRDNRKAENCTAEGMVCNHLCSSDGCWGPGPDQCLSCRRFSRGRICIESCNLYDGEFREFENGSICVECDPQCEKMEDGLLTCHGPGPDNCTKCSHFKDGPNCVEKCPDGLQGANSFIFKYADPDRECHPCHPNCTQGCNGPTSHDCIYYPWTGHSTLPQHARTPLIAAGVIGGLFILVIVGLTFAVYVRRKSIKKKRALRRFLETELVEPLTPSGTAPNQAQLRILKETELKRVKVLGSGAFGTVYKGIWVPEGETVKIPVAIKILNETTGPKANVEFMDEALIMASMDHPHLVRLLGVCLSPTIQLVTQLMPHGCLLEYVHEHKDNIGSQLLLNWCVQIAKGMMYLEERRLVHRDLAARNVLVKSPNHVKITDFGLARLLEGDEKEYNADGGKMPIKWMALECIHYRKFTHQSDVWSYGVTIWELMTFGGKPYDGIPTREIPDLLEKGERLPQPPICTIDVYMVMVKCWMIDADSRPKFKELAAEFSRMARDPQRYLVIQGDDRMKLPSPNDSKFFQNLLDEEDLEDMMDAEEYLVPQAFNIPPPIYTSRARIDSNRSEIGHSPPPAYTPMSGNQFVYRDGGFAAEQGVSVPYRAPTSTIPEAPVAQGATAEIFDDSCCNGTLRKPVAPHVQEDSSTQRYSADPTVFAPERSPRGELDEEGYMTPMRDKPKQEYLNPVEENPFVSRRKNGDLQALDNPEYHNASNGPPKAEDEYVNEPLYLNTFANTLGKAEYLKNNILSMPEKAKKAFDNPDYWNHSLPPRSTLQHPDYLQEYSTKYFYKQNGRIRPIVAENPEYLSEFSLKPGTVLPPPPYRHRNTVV
T7 sequence (P09619 33-1106, species assumed): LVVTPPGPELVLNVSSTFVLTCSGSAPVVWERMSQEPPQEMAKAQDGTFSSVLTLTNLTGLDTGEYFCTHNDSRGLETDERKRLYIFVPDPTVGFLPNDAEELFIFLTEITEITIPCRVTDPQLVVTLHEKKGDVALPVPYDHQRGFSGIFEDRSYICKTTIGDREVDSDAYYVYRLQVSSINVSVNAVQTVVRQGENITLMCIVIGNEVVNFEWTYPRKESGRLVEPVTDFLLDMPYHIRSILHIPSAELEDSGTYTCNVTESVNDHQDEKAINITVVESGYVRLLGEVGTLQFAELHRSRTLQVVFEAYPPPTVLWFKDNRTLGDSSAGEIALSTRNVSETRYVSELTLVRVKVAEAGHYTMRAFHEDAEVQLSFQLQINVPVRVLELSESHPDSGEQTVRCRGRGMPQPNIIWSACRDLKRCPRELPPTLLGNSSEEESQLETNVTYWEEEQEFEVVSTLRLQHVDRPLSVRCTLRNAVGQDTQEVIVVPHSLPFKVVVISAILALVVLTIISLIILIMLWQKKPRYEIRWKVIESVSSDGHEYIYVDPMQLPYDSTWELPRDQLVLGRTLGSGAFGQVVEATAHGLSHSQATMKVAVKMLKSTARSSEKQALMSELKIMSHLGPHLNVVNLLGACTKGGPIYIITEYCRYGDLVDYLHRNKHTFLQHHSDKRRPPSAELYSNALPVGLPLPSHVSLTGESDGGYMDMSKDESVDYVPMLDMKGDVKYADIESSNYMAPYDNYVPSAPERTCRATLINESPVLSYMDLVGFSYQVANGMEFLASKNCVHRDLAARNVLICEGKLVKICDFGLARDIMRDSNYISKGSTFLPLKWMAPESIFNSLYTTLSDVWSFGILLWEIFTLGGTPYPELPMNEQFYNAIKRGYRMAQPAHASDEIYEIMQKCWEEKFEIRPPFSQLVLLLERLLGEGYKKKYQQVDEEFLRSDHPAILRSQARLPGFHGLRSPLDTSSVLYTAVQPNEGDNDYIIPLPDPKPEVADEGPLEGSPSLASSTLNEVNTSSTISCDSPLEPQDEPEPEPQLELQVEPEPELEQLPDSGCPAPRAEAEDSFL

Consider `COc1cc(Nc2ncnc(-n3c(NCC(C)C)nc4ccccc43)n2)cc(OC)c1OC` [Compound 407], for which the IC50 in [1] is above 10 µM; in assay [2], below 0.89 µM; in assay [3], below 0.89 µM; in assay [4] it was above 10 µM; in assay [5] it was below 0.89 µM; in [6], above 10 µM. In addition, the IC50 is below 0.89 µM in [7]; below 0.89 µM in [8]; below 0.89 µM in assay [9]; above 10 µM in [10]; below 0.89 µM in assay [11]; above 10 µM in assay [12]. For the same compound, the IC50 is above 10 µM in assay [13], below 0.89 µM in assay [14], above 10 µM in assay [15] and above 10 µM in [16].

In the case of `COc1cc(Nc2ncnc(-n3c(N)nc4ccccc43)n2)cc(OCCN2CCOCC2)c1OC` [Compound 466], the IC50 in assay [1] was above 9.14 µM; in [2], below 0.812 µM; in assay [3], below 0.812 µM; in assay [4] it was 0.812 to 4.87 µM; in [5], 0.812 to 4.87 µM; in assay [6] it was above 9.14 µM. In addition, the IC50 in assay [7] was below 0.812 µM; in [8], below 0.812 µM; in assay [9], below 0.812 µM; in [10] it was above 9.14 µM; in assay [11], below 0.812 µM; in [12], above 9.14 µM. The IC50 was 4.87 to 7.11 µM in assay [13], 0.812 to 4.87 µM in [14], above 9.14 µM in assay [15] and 7.11 to 9.14 µM in [16].

For `OCc1ccc(Nc2ncnc(Nc3cc(-c4ccco4)n[nH]3)n2)cc1` [Compound 430], the IC50 in assay [1] is 1.14 to 6.87 µM; in [2], 1.14 to 6.87 µM; in [3] it was below 1.14 µM; in assay [4], 1.14 to 6.87 µM; in assay [5], 1.14 to 6.87 µM; in assay [6], 1.14 to 6.87 µM. The IC50 in assay [7] is 1.14 to 6.87 µM; in assay [8], below 1.14 µM; in [9] it was 1.14 to 6.87 µM; in [10], above 12.9 µM; in [11], 1.14 to 6.87 µM; in [12] it was 1.14 to 6.87 µM. Moreover, the IC50 is 1.14 to 6.87 µM in assay [13], 1.14 to 6.87 µM in [14], above 12.9 µM in assay [15] and 1.14 to 6.87 µM in [16].

Regarding `CC(=O)NCc1ccc(Nc2ncnc(Nc3cc(-c4ccco4)n[nH]3)n2)cc1` [Compound 443], the IC50 in assay [1] is 1.02 to 6.15 µM; in assay [2] it was 1.02 to 6.15 µM; in assay [3], 1.02 to 6.15 µM; in assay [4], 1.02 to 6.15 µM; in assay [5], 6.15 to 8.97 µM; in [6] it was above 11.5 µM. Moreover, the IC50 in assay [7] is 1.02 to 6.15 µM; in [8], below 1.02 µM; in assay [9], 1.02 to 6.15 µM; in [10], above 11.5 µM; in [11] it was above 11.5 µM; in [12] it was 1.02 to 6.15 µM. In addition, the IC50 in assay [13] is 1.02 to 6.15 µM; in assay [14] it was 6.15 to 8.97 µM; in [15], above 11.5 µM; in assay [16], above 11.5 µM.

Take `COc1cc(Nc2ncnc(-n3c(NCc4cccnc4)nc4ccccc43)n2)cc(OC)c1OC` [Compound 416]: the IC50 in assay [1] was above 9.29 µM; in assay [2] it was 0.826 to 4.95 µM; in assay [3], below 0.826 µM; in assay [4], above 9.29 µM; in [5], 7.22 to 9.29 µM; in [6] it was above 9.29 µM. The IC50 is below 0.826 µM in assay [7]; below 0.826 µM in [8]; 0.826 to 4.95 µM in [9]; above 9.29 µM in assay [10]; 0.826 to 4.95 µM in assay [11]; above 9.29 µM in [12]. In addition, the IC50 is above 9.29 µM in assay [13], 4.95 to 7.22 µM in [14], above 9.29 µM in assay [15] and above 9.29 µM in assay [16].

The record behind these values is patent publication US7074789B2, “Kinase inhibitors” (Amgen Inc., priority 1999, dated 2006).
